Measured values reported in PubChem BioAssay AID248 (DTP/NCI, 2004).
Values joined by “and” are separate entries in the source; they are usually repeats but may differ in a detail not shown here. Equal values may be shown once. Toxic doses and inconclusive results are not listed.

Tested on: L1210 leukemia ip in BDF1 mice, survival T/C
Test: NCI In Vivo Anticancer Drug Screen. Data for tumor model L1210 Leukemia (intraperitoneal) in B6D2F1 (BDF1) mice
Details: endpoint: mean survival time, higher = longer survival
In short: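 Tumor was transplanted into mice, which were then dosed with test compound or vehicle alone. Survival was recorded for each group, and the treated figure was expressed relative to the control figure.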

[1] = dose: 50.0 mg/kg/injection, schedule: Q01DX001 (ip), vehicle: carboxymethylcellulose (CMC)
[2] = dose: 75.0 mg/kg/injection, schedule: Q01DX001 (ip), vehicle: carboxymethylcellulose (CMC)
[3] = dose: 100.0 mg/kg/injection, schedule: Q01DX001 (ip), vehicle: saline
[4] = dose: 200.0 mg/kg/injection, schedule: Q01DX009 (ip), vehicle: Klucel (hydroxypropylcellulose) (HPC)
[5] = dose: 400.0 mg/kg/injection, schedule: Q01DX009 (ip), vehicle: Klucel (hydroxypropylcellulose) (HPC)
[6] = dose: 100.0 mg/kg/injection, schedule: Q04DX003 (ip), vehicle: saline with Tween-80
[7] = dose: 200.0 mg/kg/injection, schedule: Q04DX003 (ip), vehicle: saline with Tween-80
[8] = dose: 400.0 mg/kg/injection, schedule: Q04DX003 (ip), vehicle: saline with Tween-80
[9] = dose: 200.0 mg/kg/injection, schedule: Q01DX001 (ip), vehicle: saline
[10] = dose: 400.0 mg/kg/injection, schedule: Q01DX001 (ip), vehicle: saline

CCOC(=O)c1oc2cc(O)cc(C)c2c1C
T/C [1]: 97 % of control | T/C (dose: 100.0 mg/kg/injection, schedule: Q01DX001 (ip), vehicle: carboxymethylcellulose (CMC)): 100 % of control | T/C (dose: 200.0 mg/kg/injection, schedule: Q01DX001 (ip), vehicle: carboxymethylcellulose (CMC)): 94 % of control | T/C (dose: 400.0 mg/kg/injection, schedule: Q01DX001 (ip), vehicle: carboxymethylcellulose (CMC)): 94 % of control

COC(=O)/C=C/C(=O)O
T/C [2]: 86 % of control

NS(=O)(=O)c1ncnc2nc[nH]c12
T/C (dose: 5.0 mg/kg/injection, schedule: Q01DX Z (ip), vehicle: methylcellulose (MC)): 108 % of control | T/C (dose: 10.0 mg/kg/injection, schedule: Q01DX Z (ip), vehicle: methylcellulose (MC)): 109 % of control | T/C (dose: 22.0 mg/kg/injection, schedule: Q01DX001 (ip), vehicle: carboxymethylcellulose (CMC)): 109 % of control and 117 % of control | T/C (dose: 22.0 mg/kg/injection, schedule: Q01DX Z (ip), vehicle: carboxymethylcellulose (CMC)): 124 % of control | T/C (dose: 24.75 mg/kg/injection, schedule: Q01DX009 (ip), vehicle: saline): 121 % of control | T/C (dose: 25.0 mg/kg/injection, schedule: Q04DX003 (ip), vehicle: saline): 117 % of control | T/C (dose: 30.0 mg/kg/injection, schedule: Q04DX003 (ip), vehicle: saline): 121 % of control | T/C (dose: 33.0 mg/kg/injection, schedule: Q01DX001 (ip), vehicle: carboxymethylcellulose (CMC)): 107 % of control and 109 % of control | T/C (dose: 33.0 mg/kg/injection, schedule: Q01DX Z (ip), vehicle: carboxymethylcellulose (CMC)): 120 % of control | T/C (dose: 37.5 mg/kg/injection, schedule: Q01DX009 (ip), vehicle: saline): 119 % of control | T/C [1]: 114 % of control and 119 % of control | T/C (dose: 50.0 mg/kg/injection, schedule: Q04DX003 (ip), vehicle: saline): 120 % of control | T/C (dose: 66.0 mg/kg/injection, schedule: Q04DX003 (ip), vehicle: saline): 114 % of control | T/C [2]: 117 % of control | T/C (dose: 75.0 mg/kg/injection, schedule: Q01DX009 (ip), vehicle: saline with Tween-80): 101 % of control | T/C (dose: 75.0 mg/kg/injection, schedule: Q01DX Z (ip), vehicle: carboxymethylcellulose (CMC)): 152 % of control and 159 % of control and 165 % of control | T/C [3]: 115 % of control | T/C (dose: 114.0 mg/kg/injection, schedule: Q01DX Z (ip), vehicle: carboxymethylcellulose (CMC)): 93 % of control | T/C (dose: 200.0 mg/kg/injection, schedule: Q01DX Z (ip), vehicle: methylcellulose (MC)): 113 % of control

CCCCCCCCCCCCSC(=O)Nc1ccc([N+](=O)[O-])cc1Cl
T/C [4]: 107 % of control | T/C [5]: 102 % of control

OCCC1=CCCCC1
T/C [6]: 97 % of control | T/C [7]: 95 % of control | T/C [8]: 93 % of control

CC[NH-].[Cl][Pt+2][Cl].[NH2-]
T/C (dose: 0.37 mg/kg/injection, schedule: Q01DX009 (ip), vehicle: other): 111 % of control | T/C (dose: 0.75 mg/kg/injection, schedule: Q01DX001 (ip), vehicle: other): 107 % of control | T/C (dose: 0.75 mg/kg/injection, schedule: Q01DX009 (ip), vehicle: other): 114 % of control | T/C (dose: 1.5 mg/kg/injection, schedule: Q01DX001 (ip), vehicle: other): 111 % of control | T/C (dose: 3.0 mg/kg/injection, schedule: Q01DX001 (ip), vehicle: other): 114 % of control | T/C (dose: 3.0 mg/kg/injection, schedule: Q01DX009 (ip), vehicle: other): 157 % of control

O=C1c2cc(Br)ccc2NC1(c1c[nH]c2ccc(Br)cc12)c1c[nH]c2ccc(Br)cc12
T/C (dose: 50.0 mg/kg/injection, schedule: Q01DX001 (ip), vehicle: saline): 100 % of control | T/C [3]: 96 % of control | T/C [9]: 93 % of control | T/C [10]: 93 % of control

N/N=C\C(=N/N)C(O)C(O)C(O)C(O)CO (stereo not drawn)
T/C [6]: 86 % of control | T/C [7]: 88 % of control | T/C [8]: 93 % of control

COc1ccc(C2(C#N)CC2)cc1
T/C (dose: 100.0 mg/kg/injection, schedule: Q01DX009 (ip), vehicle: saline with Tween-80): 86 % of control | T/C [6]: 101 % of control | T/C (dose: 200.0 mg/kg/injection, schedule: Q01DX009 (ip), vehicle: saline with Tween-80): 88 % of control | T/C [7]: 101 % of control | T/C (dose: 400.0 mg/kg/injection, schedule: Q01DX009 (ip), vehicle: saline with Tween-80): 103 % of control | T/C [8]: 103 % of control

Cc1ccccc1[P+](Cc1ccccc1)(c1ccccc1)c1ccccc1
T/C (dose: 5.0 mg/kg/injection, schedule: Q01DX001 (ip), vehicle: saline): 105 % of control | T/C (dose: 10.0 mg/kg/injection, schedule: Q01DX001 (ip), vehicle: saline): 103 % of control | T/C (dose: 20.0 mg/kg/injection, schedule: Q01DX001 (ip), vehicle: saline): 100 % of control

CCOC(=O)C1=C(O)c2ccccc2C1c1ccccc1 (stereo not drawn)
T/C (dose: 100.0 mg/kg/injection, schedule: Q01DX009 (ip), vehicle: Klucel (hydroxypropylcellulose) (HPC)): 93 % of control | T/C [4]: 91 % of control | T/C [5]: 93 % of control

CC(=O)Nc1c(Cl)cccc1Cl
T/C (dose: 100.0 mg/kg/injection, schedule: Q04DX003 (ip), vehicle: Klucel (hydroxypropylcellulose) (HPC)): 95 % of control | T/C (dose: 200.0 mg/kg/injection, schedule: Q04DX003 (ip), vehicle: Klucel (hydroxypropylcellulose) (HPC)): 108 % of control | T/C (dose: 400.0 mg/kg/injection, schedule: Q04DX003 (ip), vehicle: Klucel (hydroxypropylcellulose) (HPC)): 110 % of control

N=C(N)N/N=C(/c1ccccc1)c1ccc(Oc2ccc(/C(=N/NC(=N)N)c3ccccc3)cc2)cc1
T/C (dose: 60.0 mg/kg/injection, schedule: Q01DX Z (oral), vehicle: methylcellulose (MC)): 95 % of control | T/C (dose: 240.0 mg/kg/injection, schedule: Q01DX Z (ip), vehicle: methylcellulose (MC)): 101 % of control | T/C (dose: 240.0 mg/kg/injection, schedule: Q01DX Z (oral), vehicle: methylcellulose (MC)): 97 % of control | T/C (dose: 360.0 mg/kg/injection, schedule: Q01DX Z (ip), vehicle: methylcellulose (MC)): 102 % of control | T/C (dose: 480.0 mg/kg/injection, schedule: Q01DX Z (ip), vehicle: methylcellulose (MC)): 101 % of control | T/C (dose: 480.0 mg/kg/injection, schedule: Q01DX Z (oral), vehicle: methylcellulose (MC)): 111 % of control

CS/C(N)=N\S(=O)(=O)c1ccc(NC(C)=O)cc1
T/C [6]: 93 % of control | T/C [7]: 90 % of control | T/C [8]: 96 % of control

COC(=O)/C(C)=C\C=C(/C)C(=O)OC
T/C (dose: 100.0 mg/kg/injection, schedule: Q04DX003 (ip), vehicle: saline): 100 % of control | T/C (dose: 200.0 mg/kg/injection, schedule: Q04DX003 (ip), vehicle: saline): 116 % of control | T/C (dose: 400.0 mg/kg/injection, schedule: Q04DX003 (ip), vehicle: saline): 97 % of control

CC(C)(C)NC[Si](C)(C)C
T/C (dose: 100.0 mg/kg/injection, schedule: Q01DX009 (ip), vehicle: saline): 92 % of control

COc1cc(OC)c(C(=O)CCl)c(O)c1Cl
T/C [6]: 99 % of control | T/C [7]: 104 % of control | T/C [8]: 92 % of control

O=c1[nH]c2ccccc2c(=O)o1
T/C [3]: 96 % of control | T/C [9]: 89 % of control | T/C [10]: 89 % of control

CCOC(=O)c1ccc(NC(=O)Nc2ccc(OC)cc2OC)cc1
T/C (dose: 12.5 mg/kg/injection, schedule: Q01DX009 (ip), vehicle: saline with Tween-80): 94 % of control and 95 % of control | T/C (dose: 25.0 mg/kg/injection, schedule: Q01DX009 (ip), vehicle: saline with Tween-80): 94 % of control and 103 % of control | T/C (dose: 50.0 mg/kg/injection, schedule: Q01DX009 (ip), vehicle: saline with Tween-80): 95 % of control and 87 % of control | T/C (dose: 100.0 mg/kg/injection, schedule: Q01DX001 (ip), vehicle: saline with Tween-80): 86 % of control | T/C (dose: 100.0 mg/kg/injection, schedule: Q04DX002 (ip), vehicle: saline with Tween-80): 97 % of control | T/C (dose: 200.0 mg/kg/injection, schedule: Q01DX001 (ip), vehicle: saline with Tween-80): 89 % of control | T/C (dose: 200.0 mg/kg/injection, schedule: Q04DX002 (ip), vehicle: saline with Tween-80): 91 % of control | T/C (dose: 400.0 mg/kg/injection, schedule: Q01DX001 (ip), vehicle: saline with Tween-80): 91 % of control | T/C (dose: 400.0 mg/kg/injection, schedule: Q04DX002 (ip), vehicle: saline with Tween-80): 93 % of control

CCCCCCCCCCCSSCCCCCCCCCCC
T/C (dose: 100.0 mg/kg/injection, schedule: Q04DX003 (ip), vehicle: other): 96 % of control | T/C (dose: 200.0 mg/kg/injection, schedule: Q04DX003 (ip), vehicle: other): 96 % of control | T/C (dose: 400.0 mg/kg/injection, schedule: Q04DX003 (ip), vehicle: other): 97 % of control
